Assay results as given in ChEMBL document CHEMBL4130412, “Characterization of the Degradation Profile of Umbelliprenin, a Bioactive Prenylated Coumarin of a Ferulago Species” (J Nat Prod, 2017).

What was measured:
Format in all cases: physicochemical
[1] = Drug level treated with umbelliprenin under sunlight in EtOH solution after 6 days by 1H-NMR analysis; conditions: 144 h
[2] = Stability of the compound assessed as compound degradation in 3% H2O2 solution at 40 degC in EtOH solution after 96 hrs by HPLC analysis; conditions: 3% H2O2 solution in EtOH solution; read-out: Drug degradation
[3] = Photostability of the compound assessed as parent compound remaining under sunlight exposed for 6 days in EtOH solution measured in presence of antioxidant DL-alpha-tocopherol acetate by TLC method; conditions: read-out: Stability
[4] = Thermal stability of the compound assessed as compound degradation at 37 degC in EtOH solution after 48 hrs by HPLC analysis; conditions: read-out: Drug degradation
[5] = Stability of the compound assessed as compound degradation in 0.1 M NaOH solution at 60 degC in EtOH solution after 96 hrs by HPLC analysis; conditions: 0.1 M NaOH solution in EtOH solution; read-out: Drug degradation
[6] = Photochemical stability of the compound assessed as compound degradation under sunlight in EtOH solution measured after 24 hrs by HPLC analysis; conditions: read-out: Drug degradation
[7] = Photochemical stability of the compound assessed as compound degradation under 254 nm UV-light exposure in EtOH solution measured after 24 hrs by HPLC analysis; conditions: read-out: Drug degradation
[8] = Photostability of the compound assessed as parent compound remaining under sunlight exposed for 3 days in EtOH solution measured in presence of UV-A filter avobenzone by TLC method; conditions: read-out: Stability
[9] = Stability of the compound assessed as compound degradation in 0.1 M HCl solution at 60 to 80 degC using solid sample up to 96 hrs by HPLC analysis; conditions: buffer
[10] = Stability of the compound assessed as compound degradation in 0.1 M HCl solution at room temperature in EtOH solution after 96 hrs by HPLC analysis; conditions: 0.1 M HCl solution in EtOH solution; read-out: Drug degradation
[11] = Photostability of the compound assessed as parent compound remaining under sunlight exposed for 6 days in EtOH solution measured in presence of UV-A filter DHHB by TLC method; conditions: read-out: Stability
[12] = Thermal stability of the compound at 40 degC in EtOH solution after 3 to 4 days by HPLC analysis
[13] = Photostability of the compound assessed as parent compound remaining under sunlight exposed for 3 days in EtOH solution measured by TLC method; conditions: read-out: Stability
[14] = Thermal stability of the compound assessed as compound degradation at 80 degC in EtOH solution measured up to 96 hrs by HPLC analysis; conditions: read-out: Drug degradation
[15] = Thermal stability of the compound assessed as compound degradation at 37 to 80 degC using solid samples after 96 hrs by HPLC analysis; conditions: read-out: Drug degradation
[16] = Photochemical stability of the compound assessed as compound degradation under sunlight in EtOH solution measured after 4 days by HPLC analysis; conditions: read-out: Drug degradation
[17] = Photostability of the compound assessed as parent compound remaining under sunlight exposed for 6 days in EtOH solution measured by TLC method; conditions: read-out: Stability
[18] = Thermal stability of the compound assessed as compound degradation at 40 degC in EtOH solution after 48 hrs by HPLC analysis; conditions: read-out: Drug degradation
[19] = Photostability of the compound assessed as parent compound remaining under sunlight exposed for 3 days in EtOH solution measured in presence of UV-A filter DHHB by TLC method; conditions: read-out: Stability
[20] = Stability of the compound assessed as compound degradation in 0.1 M NaOH solution at 60 to 80 degC using solid sample up to 96 hrs by HPLC analysis
[21] = Stability of the compound assessed as compound degradation in 0.1 M NaOH solution at room temperature in EtOH solution after 96 hrs by HPLC analysis; conditions: 0.1 M NaOH solution in EtOH solution; read-out: Drug degradation
[22] = Photostability of the compound assessed as parent compound remaining under sunlight exposed for 3 days in EtOH solution measured in presence of antioxidant DL-alpha-tocopherol acetate by TLC method; conditions: read-out: Stability
[23] = Photostability of the compound assessed as parent compound remaining under sunlight exposed for 6 days in EtOH solution measured in presence of UV-A filter avobenzone by TLC method; conditions: read-out: Stability
[24] = Photostability of the compound assessed as parent compound remaining under sunlight exposed for 6 days in EtOH solution measured in presence of UV-B filter octinoxate by TLC method; conditions: read-out: Stability
[25] = Stability of the compound assessed as compound degradation in 0.1 M HCl solution at 60 degC in EtOH solution after 24 hrs by HPLC analysis; conditions: 0.1 M HCl solution in EtOH solution; read-out: Drug degradation
[26] = Stability of the compound assessed as compound degradation in 3% H2O2 solution at room temperature in EtOH solution after 24 hrs by HPLC analysis; conditions: 3% H2O2 solution in EtOH solution; read-out: Drug degradation
[27] = Photochemical stability of the compound assessed as compound degradation under 254 nm UV-light exposure using solid samples measured up to 96 hrs by HPLC analysis; conditions: read-out: Drug degradation
[28] = Photochemical stability of the compound assessed as compound degradation under sunlight using solid samples measured up to 96 hrs by HPLC analysis; conditions: read-out: Drug degradation
[29] = Thermal stability of the compound at 37 degC in EtOH solution after 3 to 4 days by HPLC analysis
[30] = Photostability of the compound assessed as parent compound remaining under sunlight exposed for 3 days in EtOH solution measured in presence of UV-B filter octinoxate by TLC method; conditions: read-out: Stability
[31] = Stability of the compound assessed as compound degradation in 3% H2O2 solution at 40 degC in EtOH solution after 24 hrs by HPLC analysis; conditions: 3% H2O2 solution in EtOH solution; read-out: Drug degradation
[32] = Stability of the compound assessed as compound degradation in 3% H2O2 solution at room temperature in EtOH solution after 96 hrs by HPLC analysis; conditions: 3% H2O2 solution in EtOH solution; read-out: Drug degradation

In the case of `C/C1=C\COc2ccc3c(c2)OC(=O)C2C3C(CC/C(C)=C/CC1)C2(C)C` (stereo not drawn), the Drug metabolism [1] is reported as “Metabolite_Detected”.

A degraded at 96 h [2] of 50.1%, a remaining at 144 h [3] of 10% and a degraded at 48 h [4] of 1.8% were found for `CC(C)=CCC/C(C)=C/CC/C(C)=C/COc1ccc2ccc(=O)oc2c1` [UMBELLIPRENIN] in this work. For the same molecule, the degraded at 96 h [5] was 85%, the degraded at 24 h [6] was 70.4% and the degraded at 24 h [7] was 25.8%. For the same molecule, the remaining at 72 h [8] was 97%, the Stability [9] was “Stable” and the degraded at 96 h [10] was 22.2%. For the same molecule, the remaining at 144 h [11] was 98%, the Stability [12] was “Unstable” and the remaining at 72 h [13] was 35%. It also gave a degraded at 96 h [14] of 34%, a degraded at 96 h [15] of 54.6 to 65.1% and a degraded at 96 h [16] of 91.6%. It also gave a remaining at 144 h [17] of 9%, a degraded at 48 h [18] of 12.7% and a remaining at 72 h [19] of 100%. For the same molecule, the Stability [20] was “Stable”, the degraded at 96 h [21] was 85% and the remaining at 72 h [22] was 32%. The remaining at 144 h [23] was 88%, the remaining at 144 h [24] was 13% and the degraded at 24 h [25] was over 95%. For the same molecule, the degraded at 24 h [26] was 19.1%, the degraded at 96 h [27] was 59.4% and the degraded at 96 h [28] was 64.7%. The Stability [29] was “Unstable”, the remaining at 72 h [30] was 56% and the degraded at 24 h [31] was 39.4%. It also gave a degraded at 96 h [32] of 41.6%.

In the case of `CC(C)=CCC/C(C)=C/CC/C(C)=C/COc1ccc2c(c1)OC(=O)[C@@H]1[C@@H]3C(=O)Oc4cc(OC/C=C(\C)CC/C=C(\C)CCC=C(C)C)ccc4[C@@H]3[C@H]21`, the Drug metabolism [1] is reported as “Metabolite_Detected”.
